Drawing on ChEMBL document CHEMBL1136336, “Aryl[a]pyrrolo[3,4-c]carbazoles as selective cyclin D1-CDK4 inhibitors” (Bioorg Med Chem Lett, 2003), this text covers IC50 for 14 molecules.

A value given as a limit tells only on which side of the number the result lay.

Assay [1] has as its target Cyclin-dependent kinase 4/cyclin D1 (Homo sapiens, UniProt P11802). Description: Inhibitory activity against Cyclin D1-cyclin-dependent kinase 4 by measuring the phosphorylation of RbING. The format is protein-complex assay.
For assay [2], the system named is NCI-H460. Description: Inhibition of human NCI-H460 (lung) carcinoma cell proliferation. The format is functional, cell-based.
Assay [3] has as its system HCT-116. Description: Inhibition of human HCT(colon) carcinoma cell proliferation. The format is functional, cell-based.
In assay [4] the target is Cyclin-dependent kinase 1/cyclin B (Homo sapiens, UniProt P06493). Description: Inhibition of Cyclin B-cyclin-dependent kinase 1. The format is protein-complex assay.
Assay [5] addresses cAMP-dependent protein kinase (PKA) (Homo sapiens, UniProt P22694+P17612+P22612). Description: Inhibition of Protein kinase A. The format is protein assay.
The target in assay [6] is Protein kinase C gamma type (Homo sapiens, UniProt P05129). Description: Inhibition of Protein kinase C gamma.
Assay [7] addresses Protein kinase C beta type (Homo sapiens, UniProt P05771). Description: Inhibition of Protein kinase C beta 2.
For assay [8], the target named is Protein kinase C alpha type (Homo sapiens, UniProt P17252). Description: Inhibition of Protein kinase C alpha.
The target of assay [9] is Cyclin-dependent kinase 2/cyclin E (Homo sapiens, UniProt P24941). Description: Inhibition of Cyclin E-cyclin-dependent kinase 2. The format is protein-complex assay.
Assay [10] addresses Glycogen synthase kinase-3 beta (Homo sapiens, UniProt P49841). Description: Inhibition of Glycogen synthase kinase-3 beta.

Sequence of Cyclin-dependent kinase 4/cyclin D1 (P11802 whole entry): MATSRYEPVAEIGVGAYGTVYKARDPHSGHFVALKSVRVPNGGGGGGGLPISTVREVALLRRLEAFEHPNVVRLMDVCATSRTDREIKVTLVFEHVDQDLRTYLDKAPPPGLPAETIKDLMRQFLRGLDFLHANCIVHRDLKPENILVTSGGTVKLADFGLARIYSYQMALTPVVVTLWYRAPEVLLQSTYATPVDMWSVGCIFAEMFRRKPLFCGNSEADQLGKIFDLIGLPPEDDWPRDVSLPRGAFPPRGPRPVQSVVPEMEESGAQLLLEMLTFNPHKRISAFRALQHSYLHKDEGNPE
Sequence of Cyclin-dependent kinase 4/cyclin D1 (P24385 whole entry, further chain): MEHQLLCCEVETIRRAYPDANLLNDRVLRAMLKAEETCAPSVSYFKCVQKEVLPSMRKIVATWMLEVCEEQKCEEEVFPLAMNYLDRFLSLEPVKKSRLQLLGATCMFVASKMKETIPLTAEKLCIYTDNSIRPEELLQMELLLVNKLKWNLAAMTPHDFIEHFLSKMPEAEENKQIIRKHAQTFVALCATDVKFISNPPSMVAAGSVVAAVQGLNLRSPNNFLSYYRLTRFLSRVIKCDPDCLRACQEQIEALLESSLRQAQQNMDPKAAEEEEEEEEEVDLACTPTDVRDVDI
Sequence of Protein kinase C beta type (P05771 whole entry): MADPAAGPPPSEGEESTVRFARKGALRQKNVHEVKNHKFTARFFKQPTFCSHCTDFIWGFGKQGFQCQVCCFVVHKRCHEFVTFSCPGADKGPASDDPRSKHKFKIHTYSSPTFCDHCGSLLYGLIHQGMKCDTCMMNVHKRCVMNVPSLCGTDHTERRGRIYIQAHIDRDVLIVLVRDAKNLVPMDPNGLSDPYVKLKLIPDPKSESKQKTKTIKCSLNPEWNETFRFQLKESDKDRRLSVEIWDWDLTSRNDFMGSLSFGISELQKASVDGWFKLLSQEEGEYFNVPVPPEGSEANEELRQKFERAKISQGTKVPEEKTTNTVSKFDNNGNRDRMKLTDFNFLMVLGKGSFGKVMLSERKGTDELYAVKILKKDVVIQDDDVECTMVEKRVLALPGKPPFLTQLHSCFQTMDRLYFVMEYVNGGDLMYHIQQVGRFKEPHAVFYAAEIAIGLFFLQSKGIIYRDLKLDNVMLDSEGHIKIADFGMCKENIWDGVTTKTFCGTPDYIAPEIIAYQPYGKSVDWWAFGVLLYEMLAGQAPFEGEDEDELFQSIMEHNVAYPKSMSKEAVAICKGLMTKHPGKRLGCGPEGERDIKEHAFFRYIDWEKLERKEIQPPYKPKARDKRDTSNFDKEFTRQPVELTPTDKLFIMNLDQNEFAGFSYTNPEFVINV
Sequence of Glycogen synthase kinase-3 beta (P49841 whole entry): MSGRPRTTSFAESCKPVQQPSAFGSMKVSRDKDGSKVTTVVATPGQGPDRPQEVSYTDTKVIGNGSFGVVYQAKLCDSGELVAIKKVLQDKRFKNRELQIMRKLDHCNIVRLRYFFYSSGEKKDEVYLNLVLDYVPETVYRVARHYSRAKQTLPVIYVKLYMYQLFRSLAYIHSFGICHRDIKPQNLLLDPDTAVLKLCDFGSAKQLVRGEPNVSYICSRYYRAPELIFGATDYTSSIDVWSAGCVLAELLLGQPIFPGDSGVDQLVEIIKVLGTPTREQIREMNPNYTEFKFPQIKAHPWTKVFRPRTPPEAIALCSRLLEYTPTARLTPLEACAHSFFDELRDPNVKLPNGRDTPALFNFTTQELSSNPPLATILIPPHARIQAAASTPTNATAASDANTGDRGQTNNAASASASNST

Consider `O=C1NC(=O)c2c1c1c3c(ccc1c1[nH]c4ccccc4c21)CCCC3`, for which, in [1], the midpoint of inhibition, the IC50, lay at 410 nM.

On to `O=C1NC(=O)c2c1c1ccncc1c1[nH]c3ccccc3c21`, for which the concentration for half-maximal inhibition (IC50) – broadly, the point on the concentration scale where inhibition reaches its midpoint – in assay [1] was 1810 nM.

Turning to `O=C1NC(=O)c2c1c1c3ccccc3[nH]c1c1sc3ccccc3c21`, the figures for the IC50 in assay [1], in assay [2] and in assay [3] were 220 nM, 2840 nM and 3020 nM, respectively.

In assay [1], `O=C1NC(O)c2c1c1c3ccccc3[nH]c1c1[nH]c3ccccc3c21` (centres undefined) yielded an IC50 of 3830 nM. In other words, the single-digit micromolar range.

For the molecule `O=C1NC(=O)c2c1c1sccc1c1[nH]c3ccccc3c21`, the IC50 is 150 nM in assay [1], greater than 10000 nM in assay [2] and greater than 10000 nM in assay [3].

With `O=C1NC(=O)c2c1c1c3ccccc3ccc1c1[nH]c3ccccc3c21`, the IC50 in assay [4] is 590 nM; in assay [1], 45 nM; in assay [5], greater than 20000 nM; in assay [6] it was 56500 nM; in assay [2], 2110 nM; in [7], 9000 nM. Moreover, the IC50 in [8] was determined as 52800 nM; in assay [3], 5050 nM; in [9] it was 275 nM; in assay [10] it was 4380 nM.

Turning to `O=C1NC(=O)c2c1c1c3ccc[nH]c-3nc1c1[nH]c3ccccc3c21`, the IC50 in assay [1] is 250 nM; in assay [2] it was 1160 nM; in assay [3], 1050 nM.

`O=C1NC(=O)c2c1c1ccc3ccccc3c1c1[nH]c3ccccc3c21`: the values for the IC50 in assay [1], in assay [2] and in [3] were 430 nM, greater than 10000 nM and greater than 10000 nM, respectively.

Take `O=C1NC(=O)c2c1c1ncccc1c1[nH]c3ccccc3c21`: the values for the IC50 in assay [1], in [2] and in assay [3] were 180 nM, greater than 10000 nM and greater than 10000 nM, respectively.

`O=C1NC(=O)c2c1c1cc3ccccc3cc1c1[nH]c3ccccc3c21` came in with an IC50 in assay [1] greater than 10000 nM.

For the molecule `O=C1NC(=O)c2c1c1ccccc1c1[nH]c3ccccc3c21`, the values for the IC50 in [1], in assay [2] and in assay [3] were 260 nM, 3420 nM and 5830 nM, respectively.

In [1], `O=C1NC(=O)c2c1c1[nH]cnc1c1[nH]c3ccccc3c21` [GRANULATIMIDE] returned an IC50 of 740 nM.

The molecule `O=C1NC(=O)c2c1c1c3ccccc3[nH]c1c1[nH]c3ccccc3c21` [STAUROSPORINE AGLYCON] gave an IC50 in assay [5] greater than 2000 nM.

`O=C1NCc2c1c1c3ccccc3[nH]c1c1[nH]c3ccccc3c21` [STAUROSPORINONE]: the IC50 was 830 nM in assay [1]; greater than 2000 nM in assay [5]; 3200 nM in assay [2]; 1720 nM in assay [3]; greater than 1000 nM in assay [9].
